What all share (set-up): key: 0 = no effect, 10 = maximum effect; letter = response symbol
The subject of experiment [1] is morningglory. Put plainly: Test A post-emergence. The experiment is classed as in vivo, Ipomoea spp. Particulars: 0.4 kg/ha. From the text:
(§1) The activity of these compounds was discovered in a number of greenhouse and field tests. The ratings are based on a numerical scale extending from 0=no effect, to 10=maximum effect. The accompanying descriptive symbols have the following meanings:
(§2) Seeds of crabgrass (Digitaria spp.), barnyardgrass (Echinochloa crusgalli), wild oats (Avena fatua), cassia (Cassia tora), morningglory (Ipomoea spp.), cocklebur (Xanthium spp.), sorghum, corn, soybean, rice, wheat and nutsedge tubers (Cyperus rotundus) were planted in a growth medium and treated preemergence with a nonphytotoxic solvent solution of the compounds of Table XII. Other batches of seeds and tubers for all of the foregoing weed and crop plants were planted at the same time as controls. The control plantings were untreated; i.e., neither any compound nor any solvent was applied. At the same time, cotton having five leaves (including cotyledonary ones), bush beans with the third trifoliate leaf expanding, crabgrass with two leaves, barnyardgrass with two leaves, wild oats with two leaves, cassia with three leaves (including cotyledonary ones), morningglory with four leaves (including the cotyledonary ones), cocklebur with four leaves (including the cotyledonary ones), sorghum with four leaves, corn with four leaves, soybean with two cotyledonary leaves, rice with three leaves, wheat with one leaf, and nutsedge with three-five leaves were sprayed with a nonphytotoxic solvent solution of the compounds of Table XII. Other groups of all the same weed and crop plants were sprayed with the same nonphytotoxic solvent so as to provide control plants. Preemergence and postemergence treated plants and controls were maintained in a greenhouse for sixteen days, then all treated plants were compared with their respective controls and rated visually for response to treatment.

For experiment [2], the system named is cocklebur. Description: Test A post-emergence. The experiment is classed as in vivo, Xanthium spp. Particulars: 0.4 kg/ha.
Description: as §1, §2

Experiment [3] has as its system cassia. Put plainly: Test A post-emergence. The experiment is classed as in vivo, Cassia tora. The conditions noted are these: 0.4 kg/ha.
Description: as §1, §2

The subject of another experiment is corn. Description: Test A post-emergence. The experiment is classed as in vivo. The conditions noted are these: 0.4 kg/ha.
Description: as §1, §2

Experiment [4] relates to sorghum. Description: Test A post-emergence. The class given is in vivo. The conditions noted are these: 0.4 kg/ha.
Description: as §1, §2

Experiment [5] concerns wheat. Description: Test A post-emergence. The experiment is classed as in vivo. The conditions noted are these: 0.4 kg/ha.
Description: as §1, §2

A further experiment deals with nutsedge. Description: Test A post-emergence. The experiment is classed as in vivo, Cyperus rotundus. Particulars: 0.4 kg/ha.
Description: as §1, §2

Experiment [6] deals with crabgrass. Description: Test A post-emergence. The class given is in vivo, Digitaria spp. Particulars: 0.4 kg/ha.
Description: as §1, §2

The subject of experiment [7] is barnyardgrass. Put plainly: Test A post-emergence. The class given is in vivo, Echinochloa crusgalli. The conditions noted are these: 0.4 kg/ha.
Description: as §1, §2

Experiment [8] deals with wild oats. Description: Test A post-emergence. The class given is in vivo, Avena fatua. Particulars: 0.4 kg/ha.
Description: as §1, §2

Experiment [9] concerns soybean. Put plainly: Test A post-emergence. The class given is in vivo. Particulars: 0.4 kg/ha.
Description: as §1, §2

Experiment [10] deals with morningglory. Description: Test A pre-emergence. The class given is in vivo, Ipomoea spp.
Description: as §1, §2

The subject of experiment [11] is cocklebur. Put plainly: Test A pre-emergence. The class given is in vivo, Xanthium spp.
Description: as §1, §2

Experiment [12] relates to cassia. Description: Test A pre-emergence. The class given is in vivo, Cassia tora.
Description: as §1, §2

For experiment [13], the system named is crabgrass. Description: Test A pre-emergence. The class given is in vivo, Digitaria spp.
Description: as §1, §2

The subject of experiment [14] is barnyardgrass. Description: Test A pre-emergence. The class given is in vivo, Echinochloa crusgalli.
Description: as §1, §2

Experiment [15] has as its system soybean. Description: Test A pre-emergence. The class given is in vivo.
Description: as §1, §2

The subject of experiment [16] is wheat. Put plainly: Test A pre-emergence. The experiment is classed as in vivo.
Description: as §1, §2

Experiment [17] concerns wild oats. Description: Test A pre-emergence. The class given is in vivo, Avena fatua. The conditions noted are these: 0.4 kg/ha.
Description: as §1, §2

Experiment [18] deals with sorghum. Put plainly: Test A pre-emergence. The class given is in vivo.
Description: as §1, §2

Consider `COc1cc(OC)nc(NC(=O)NS(=O)(=O)c2ccccc2C(=O)OC2CCCCC2)n1` [drawing 431], for which the response rating in the experiment with morningglory [1] is given as 9C; in the experiment on cocklebur [2], 9C; in the experiment with cassia [3] it was 1C; with corn, 7H; with sorghum [4], 8H; with wheat [5], 1C.

Take `COC(=O)c1cc(Cl)ccc1S(=O)(=O)NC(=O)Nc1nc(OC)nc(OC)n1` [drawing 435]: the response rating with morningglory [1] is 10C; in the experiment with cocklebur [2], 10C; with nutsedge it was 10C; in the experiment with crabgrass [6], 1C; with barnyardgrass [7] it was 3G; in the experiment with wild oats [8], 0. Besides, the values for the response rating with corn, with sorghum [4] and with wheat [5] were 9H, 8H and 0, respectively.

As to `CCCCCCCCCCCCNC(=O)c1ccccc1S(=O)(=O)NC(=O)Nc1nc(C)nc(OC)n1` [drawing 467], the response rating in the experiment on morningglory [1] came out at 9C; in the experiment with nutsedge, 9G; with soybean [9], 9C.

In the case of `COC(=O)c1ccccc1S(=O)(=O)NC(=O)Nc1nc(C)cc(C)n1` [drawing 479], the response rating in the experiment on morningglory [10] (0.4 kg/ha) turned out to be 9G; in the experiment with morningglory [10] (2 kg/ha) it was 9G; with cocklebur [11] (0.4 kg/ha) it was 9G; in the experiment with cocklebur [11] (2 kg/ha), 9G; in the experiment on cassia [12] (0.4 kg/ha), 8G; with cassia [12] (2 kg/ha), 9G. The response rating in the experiment with crabgrass [13] (0.4 kg/ha) turned out to be 9G; in the experiment with crabgrass [13] (2 kg/ha) it was 9G; in the experiment on barnyardgrass [14] (0.4 kg/ha) it was 9H; with barnyardgrass [14] (2 kg/ha) it was 9H; in the experiment with soybean [15] (0.4 kg/ha), 9H; in the experiment with soybean [15] (2 kg/ha), 9H. For the same compound, the response rating in the experiment on wheat [16] (0.4 kg/ha) and in the experiment on wheat [16] (2 kg/ha) was 9H throughout.

On to `COC(=O)c1ccccc1S(=O)(=O)NC(=O)Nc1nc(C)nc(OC)n1` [drawing 482], for which the response rating with morningglory [10] (0.4 kg/ha) stood at 9H; in the experiment on cocklebur [11] (0.4 kg/ha), 9G; with cassia [12] (0.4 kg/ha), 9G; in the experiment with barnyardgrass [14] (0.4 kg/ha), 9H; with wild oats [17], 9H; in the experiment with sorghum [18] (0.4 kg/ha), 9H. In addition, the response rating with soybean [15] (0.4 kg/ha) and in the experiment on wheat [16] (0.4 kg/ha) was 9H each time.

Regarding `COc1cc(OC)nc(NC(=O)NS(=O)(=O)c2ccccc2C(=O)OCCCl)n1` [drawing 487], the response rating with morningglory [10] (0.4 kg/ha) was found to be 9G; with cocklebur [11] (0.4 kg/ha), 9G; with barnyardgrass [14] (0.4 kg/ha) it was 9H; in the experiment with wild oats [17], 9G; in the experiment with sorghum [18] (0.4 kg/ha), 9H; in the experiment with soybean [15] (0.4 kg/ha), 9H. Also, in the experiment with wheat [16] (0.4 kg/ha), the response rating is 9G.

Consider `CCC(C)OC(=O)c1ccccc1S(=O)(=O)NC(=O)Nc1nc(OC)cc(OC)n1` (stereo not drawn) [drawing 490], for which the response rating in the experiment on morningglory [10] (0.4 kg/ha) was determined as 9G; in the experiment on cocklebur [11] (0.4 kg/ha), 9G; in the experiment with cassia [12] (0.4 kg/ha) it was 8G; with crabgrass [13] (0.4 kg/ha), 0; in the experiment with barnyardgrass [14] (0.4 kg/ha) it was 9H; in the experiment with wild oats [17] it was 8G. The response rating in the experiment on sorghum [18] (0.4 kg/ha) came to 9G; with soybean [15] (0.4 kg/ha), 8H; in the experiment on wheat [16] (0.4 kg/ha), 2G.

Consider `CCC(C)OC(=O)c1ccccc1S(=O)(=O)NC(=O)Nc1nc(C)cc(OC)n1` (stereo not drawn) [drawing 491], for which the response rating in the experiment on morningglory [10] (0.4 kg/ha) worked out at 9G; with cassia [12] (0.4 kg/ha), 9G; in the experiment on crabgrass [13] (0.4 kg/ha) it was 6G; in the experiment with barnyardgrass [14] (0.4 kg/ha) it was 9H; with sorghum [18] (0.4 kg/ha) it was 9H; in the experiment on soybean [15] (0.4 kg/ha) it was 9H. In the experiment with wheat [16] (0.4 kg/ha), this compound gave a response rating of 9G.

In the case of `COC(=O)c1cc(Cl)ccc1S(=O)(=O)NC(=O)Nc1nc(C)cc(OC)n1` [drawing 501], the response rating in the experiment with morningglory [10] (0.4 kg/ha) amounted to 9G; in the experiment on cocklebur [11] (0.4 kg/ha), 9H; with barnyardgrass [14] (0.4 kg/ha) it was 9H; in the experiment on wild oats [17], 9G; with sorghum [18] (0.4 kg/ha) it was 9H; in the experiment on soybean [15] (0.4 kg/ha), 9H. In addition, the response rating in the experiment on wheat [16] (0.4 kg/ha) is 8H.

Consider `COC(=O)c1cc(Cl)ccc1S(=O)(=O)NC(=O)Nc1nc(OC)nc(OC)n1` [drawing 502], for which the response rating with morningglory [10] (0.4 kg/ha) worked out at 9G; in the experiment with cocklebur [11] (0.4 kg/ha) it was 9G; in the experiment with crabgrass [13] (0.4 kg/ha) it was 1C; in the experiment on wild oats [17] it was 8G; with sorghum [18] (0.4 kg/ha), 9H; in the experiment with soybean [15] (0.4 kg/ha), 9H. The same compound gave a response rating in the experiment on wheat [16] (0.4 kg/ha) of 1C.

`COc1cc(OC)nc(NC(=O)NS(=O)(=O)c2ccccc2C(=O)OC(C)C)n1` [drawing 503]: the response rating in the experiment on morningglory [10] (0.4 kg/ha) is on record as 9G; in the experiment on crabgrass [13] (0.4 kg/ha), 8G; in the experiment on wild oats [17], 7G; in the experiment on wheat [16] (0.4 kg/ha), 7G.

Turning to `COc1cc(C)nc(NC(=O)NS(=O)(=O)c2ccccc2C(=O)OC(C)C)n1` [drawing 504], the response rating was 9H with morningglory [10] (0.4 kg/ha), 8G in the experiment with crabgrass [13] (0.4 kg/ha), 8G in the experiment with wild oats [17] and 9G in the experiment on wheat [16] (0.4 kg/ha).

Turning to `COc1nc(NC(=O)NS(=O)(=O)c2ccccc2C(=O)OC(C)C)nc(OC)n1` [drawing 505], the results for the response rating in the experiment on crabgrass [13] (0.4 kg/ha), in the experiment with wild oats [17] and with wheat [16] (0.4 kg/ha) were 7G, 8G and 7G, respectively.

As to `CCOC(=O)c1ccccc1S(=O)(=O)NC(=O)Nc1nc(OC)cc(OC)n1` [drawing 508], the response rating in the experiment with cocklebur [11] (2 kg/ha) is reported as 9G; in the experiment with cassia [12] (2 kg/ha), 9G; in the experiment on crabgrass [13] (2 kg/ha), 9H; in the experiment with barnyardgrass [14] (2 kg/ha) it was 9H; in the experiment with sorghum [18] (2 kg/ha) it was 10H; with soybean [15] (2 kg/ha), 9H. Also, in the experiment with wheat [16] (2 kg/ha), the response rating is 9H.

Turning to `CCOC(=O)c1ccccc1S(=O)(=O)NC(=O)Nc1nc(OC)cc(OC)n1` [drawing 509], the response rating with cocklebur [11] (0.4 kg/ha) is reported as 9G; in the experiment on cassia [12] (0.4 kg/ha) it was 9G; in the experiment with barnyardgrass [14] (0.4 kg/ha), 9H; in the experiment with wild oats [17], 9G; in the experiment on sorghum [18] (0.4 kg/ha), 9H; with soybean [15] (0.4 kg/ha) it was 9H. The same compound returned a response rating with wheat [16] (0.4 kg/ha) of 9H.

Turning to `C=CCOC(=O)c1ccccc1S(=O)(=O)NC(=O)Nc1nc(C)nc(OC)n1` [drawing 518], the response rating with morningglory [10] (0.4 kg/ha) stood at 9G; in the experiment with cocklebur [11] (0.4 kg/ha), 9G; in the experiment with cassia [12] (0.4 kg/ha), 9G; with crabgrass [13] (0.4 kg/ha), 9H; in the experiment with barnyardgrass [14] (0.4 kg/ha), 9H; in the experiment with sorghum [18] (0.4 kg/ha), 10H. Further, the response rating with soybean [15] (0.4 kg/ha) and with wheat [16] (0.4 kg/ha) was 9H each time.

Take `COc1cc(C)nc(NC(=O)NS(=O)(=O)c2ccccc2C(=O)NCc2ccccc2)n1` [drawing 531]: the response rating in the experiment on morningglory [10] (0.4 kg/ha) is given as 9G; in the experiment on cocklebur [11] (0.4 kg/ha), 8G; with cassia [12] (0.4 kg/ha), 9G; in the experiment with barnyardgrass [14] (0.4 kg/ha), 9H; in the experiment on wild oats [17] it was 3C; in the experiment on soybean [15] (0.4 kg/ha), 9H. In the experiment on wheat [16] (0.4 kg/ha), this compound registered a response rating of 9H.

As to `COC(=O)c1ccccc1S(=O)(=O)NC(=O)Nc1nc(OC)nc(OCC(F)(F)F)n1` [drawing 540], the response rating is given as 9G in the experiment with morningglory [10] (0.4 kg/ha); 9G with cocklebur [11] (0.4 kg/ha); 9G in the experiment with cassia [12] (0.4 kg/ha); 2G in the experiment with crabgrass [13] (0.4 kg/ha); 9H in the experiment with soybean [15] (0.4 kg/ha); 6G in the experiment on wheat [16] (0.4 kg/ha).

The values above are taken from patent US4383113A, “Agricultural sulfonamides” (E. I. Du Pont de Nemours and Company, priority 1981, dated 1983).
